Key:
Assay in all cases: microbe, parasite or virus in culture
Assay type in all cases: cell-based
[1] = tested on: HCV 1a RLuc cells (dicistronic genotype 1a H77 replicon, RLuc reporter); settings: Hepatitis C virus, 72 h, Table 2; genotype 1a H77 replicon, 72 hours; read-out: 1a
Procedure, shortened: (§1)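 Replicons used: genotype 1b Con1, 1a H77, 2a JFH-1, and a 2a JFH-1 chimera with J6-strain NS5A (M31 present), all dicistronic.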

[2] = tested on: HCV 1b RLuc cells (dicistronic genotype 1b Con1 replicon, RLuc reporter); settings: Hepatitis C virus, 72 h, read-out: 1b (nM)
Procedure, shortened: as §1

[3] = tested on: HCV 2a JFH-1 Rluc cells (dicistronic genotype 2a JFH-1 replicon, RLuc reporter); settings: Hepatitis C virus, 72 h, Table 2; genotype 2a JFH-1 replicon, 72 hours; read-out: 2a JFH
Procedure, shortened: as §1

[4] = tested on: HCV 3a RLuc cells (NS5A chimeric genotype 1b Con1 replicon with consensus genotype 3a NS5A gene); settings: Hepatitis C virus, read-out: 3a, Table 2; genotype 3a NS5A chimeric replicon
Procedure, shortened: (§2)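 Replicon cells stably carrying the listed RLuc-encoding dicistronic replicons were seeded and treated with DMSO serial dilutions of compound (10 mM stocks) diluted into culture medium. After 72 h, cells were lysed and Renilla luciferase activity measured. EC50 was derived by non-linear regression.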

[5] = tested on: HCV 4a Rluc cells (NS5A chimeric genotype 1b Con1 replicon with genotype 4a NS5A gene); settings: Hepatitis C virus, read-out: 4a
Procedure, shortened: as §2

| SMILES | EC50 [1] [nM] | EC50 [2] [nM] | EC50 [3] [nM] | EC50 [4] [nM] | EC50 [5] [nM] |
| --- | --- | --- | --- | --- | --- |
| COC(=O)N[C@H](C(=O)N1CCC[C@H]1c1nc2ccc3cc(-c4ccc5c(ccc6nc([C@@H]7[C@H]8CC[C@H](C8)N7C(=O)[C@@H](NC(=O)OC)[C@@H](C)OC)[nH]c65)c4)ccc3c2[nH]1)C(C)C [Example 64] | 0.001 to 0.999 | 0.018 | 0.001 to 0.999 | 0.001 to 0.99 | 0.001 to 0.99 |
| COC(=O)NC(C(=O)N1CCC[C@H]1c1ncc(-c2ccc(-c3ccc4c(ccc5nc([C@@H]6[C@H]7CC[C@H](C7)N6C(=O)[C@@H](NC(=O)OC)C6CCOCC6)[nH]c54)c3)cc2)[nH]1)C(C)C (some centres unmarked) [Example 67] | 0.001 to 0.999 | 0.044 | 0.001 to 0.999 | 1 to 4.99 | 0.001 to 0.99 |
| COC(=O)NC(C(=O)N1CCC[C@H]1c1ncc(-c2ccc(-c3ccc4c(ccc5nc([C@@H]6[C@H]7CC[C@H](C7)N6C(=O)[C@@H](NC(=O)OC)C(C)C)[nH]c54)c3)cc2)[nH]1)C1CCOCC1 (some centres unmarked) [Example 69] | 0.001 to 0.999 | 0.035 | 0.001 to 0.999 | 0.001 to 0.99 | 0.001 to 0.99 |
| COC(=O)NC(C(=O)N1CCC[C@H]1c1nc2ccc3cc(-c4ccc5cc(-c6cnc([C@@H]7[C@H]8CC[C@H](C8)N7C(=O)[C@H](NC(=O)OC)c7ccccc7)[nH]6)ccc5c4)ccc3c2[nH]1)[C@@H](C)OC (some centres unmarked) [Example 70] | 0.001 to 0.999 | 0.008 | 1 to 44 | 1 to 4.99 | 0.001 to 0.99 |
| COC(=O)N[C@H](C(=O)N1[C@@H]2CC[C@@H](C2)[C@H]1c1ncc(-c2ccc(-c3ccc4cc(-c5cnc([C@@H]6CCCN6C(=O)[C@H](NC(=O)OC)c6ccccc6)[nH]5)ccc4c3)cc2)[nH]1)C1CCOCC1 [Example 71] | 0.001 to 0.999 | 0.013 | 0.001 to 0.999 | 0.001 to 0.99 | 0.001 to 0.99 |
| COC(=O)N[C@H](C(=O)N1[C@@H]2CC[C@@H](C2)[C@H]1c1ncc(-c2ccc(-c3ccc4cc(-c5cnc([C@@H]6CCCN6C(=O)[C@H](NC(=O)OC)c6ccccc6)[nH]5)ccc4c3)cc2)[nH]1)[C@@H](C)OC [Example 72] | 0.001 to 0.999 | 0.006 | 0.001 to 0.999 | 0.001 to 0.99 | 0.001 to 0.99 |
| COC(=O)N[C@H](C(=O)N1CCC[C@H]1c1ncc(-c2ccc3c(c2)CCc2cc(-c4cnc([C@@H]5[C@H]6CC[C@H](C6)N5C(=O)[C@@H](NC(=O)OC)[C@@H](C)OC)[nH]4)ccc2-3)[nH]1)[C@@H](C)OC [Example 73] | 0.001 to 0.999 | 0.038 | 0.001 to 0.999 | 1 to 4.99 | 0.001 to 0.99 |
| COC(=O)N[C@H](C(=O)N1CCC[C@H]1c1ncc(-c2ccc3c(c2)OCc2cc(-c4ccc5nc([C@@H]6[C@H]7CC[C@H](C7)N6C(=O)[C@@H](c6ccccc6)N(N)C(=O)OC)[nH]c5c4)ccc2-3)[nH]1)C(C)C [Example 74] | 0.001 to 0.999 | 0.006 | 0.001 to 0.999 | 0.001 to 0.99 | 0.001 to 0.99 |
| COC(=O)NC(C(=O)N1[C@@H]2CC[C@@H](C2)[C@H]1c1nc2ccc(-c3ccc4c(c3)C(F)(F)c3cc(-c5c[nH]c([C@H]6CCCN6C(=O)[C@H](NC(=O)OC)c6ccccc6)n5)ccc3-4)cc2[nH]1)[C@@H](C)OC (some centres unmarked) [Example 75] | 0.001 to 0.999 | 0.005 | 0.001 to 0.999 | 0.001 to 0.99 | 0.001 to 0.99 |
| COC(=O)N[C@H](C(=O)N1CCC[C@H]1c1ncc(-c2ccc3c(c2)CCc2cc(-c4ccc5nc([C@@H]6[C@H]7CC[C@H](C7)N6C(=O)[C@@H](NC(=O)OC)[C@@H](C)OC)[nH]c5c4)ccc2-3)[nH]1)[C@@H](C)OC [Example 76] | 0.001 to 0.999 | 0.01 | 1 to 44 | 1 to 4.99 | 0.001 to 0.99 |
| COC(=O)N[C@H](C(=O)N1CCC[C@H]1c1ncc(-c2ccc3c(c2)CCc2cc(-c4ccc5nc([C@@H]6[C@H]7CC[C@H](C7)N6C(=O)[C@@H](NC(=O)OC)C6CCOCC6)[nH]c5c4)ccc2-3)[nH]1)C1CCOCC1 [Example 77] | 0.001 to 0.999 | 0.029 | 0.001 to 0.999 | 0.001 to 0.99 | 0.001 to 0.99 |
| COC(=O)N[C@H](C(=O)N1CCC[C@H]1c1ncc(-c2ccc3c(c2)CCc2cc(-c4ccc5nc([C@@H]6[C@H]7CC[C@H](C7)N6C(=O)[C@H](NC(=O)OC)c6ccccc6)[nH]c5c4)ccc2-3)[nH]1)C1CCOCC1 [Example 78] | 0.001 to 0.999 | 0.013 | 0.001 to 0.999 | 0.001 to 0.99 | 0.001 to 0.99 |
| COC(=O)N[C@H](C(=O)N1CCC[C@H]1c1ncc(-c2ccc3c(c2)CCc2cc(-c4cnc([C@@H]5[C@H]6CC[C@H](C6)N5C(=O)[C@@H](NC(=O)OC)C5CCOCC5)[nH]4)ccc2-3)[nH]1)C1CCOCC1 [Example 79] | 0.001 to 0.999 | 0.231 | 0.001 to 0.999 | 0.001 to 0.99 | 0.001 to 0.99 |
| COC(=O)NC(C(=O)N1CCC[C@@H]1c1nc(-c2ccc3c(c2)C(F)(F)c2cc(-c4ccc5nc([C@@H]6[C@H]7CC[C@H](C7)N6C(=O)[C@H](NC(=O)OC)c6ccccc6)[nH]c5c4)ccc2-3)c[nH]1)[C@@H](C)OC (some centres unmarked) [Example 81] | 0.001 to 0.999 | 0.006 | 0.001 to 0.999 | 0.001 to 0.99 | 0.001 to 0.99 |
| COC(=O)N[C@H](C(=O)N1CCC[C@H]1c1nc2ccc3cc(-c4ccc5cc(-c6cnc([C@@H]7[C@H]8CC[C@H](C8)N7C(=O)[C@H](NC(=O)OC)c7ccccc7)[nH]6)ccc5c4)ccc3c2[nH]1)C1CCOCC1 [Example 84] | 0.001 to 0.999 | 0.007 | 0.001 to 0.999 | 0.001 to 0.99 | 0.001 to 0.99 |
| COC(=O)N[C@H](C(=O)N1[C@@H]2CC[C@@H](C2)[C@H]1c1ncc(-c2ccc3c(c2)CCc2cc(-c4cnc([C@@H]5CCCN5C(=O)[C@@H](NC(=O)OC)C(C)OC)[nH]4)ccc2-3)[nH]1)C(C)C (some centres unmarked) [Example 85] | 0.001 to 0.999 | 0.016 | 0.001 to 0.999 | 1 to 4.99 | 0.001 to 0.99 |
| COC(=O)N[C@H](C(=O)N1[C@@H]2CC[C@@H](C2)[C@H]1c1ncc(-c2ccc3c(c2)CCc2cc(-c4cnc([C@@H]5CCCN5C(=O)[C@@H](NC(=O)OC)C5CCOCC5)[nH]4)ccc2-3)[nH]1)C(C)C [Example 86] | 0.001 to 0.999 | 0.034 | 0.001 to 0.999 | 1 to 4.99 | 0.001 to 0.99 |
| COC(=O)N[C@H](C(=O)N1CCC[C@H]1c1nc2ccc3cc(-c4ccc5c(c4)CCc4nc([C@@H]6[C@H]7CC[C@H](C7)N6C(=O)[C@@H](NC(=O)OC)[C@@H](C)OC)[nH]c4-5)ccc3c2[nH]1)C(C)C [Example 88] | 0.001 to 0.999 | 0.019 | 0.001 to 0.999 | 0.001 to 0.99 | 0.001 to 0.99 |
| COC(=O)N[C@H](C(=O)N1CCC[C@H]1c1nc2ccc3cc(-c4ccc5c(c4)CCc4nc([C@@H]6[C@H]7CC[C@H](C7)N6C(=O)[C@@H](NC(=O)OC)C6CCOCC6)[nH]c4-5)ccc3c2[nH]1)C(C)C [Example 89] | 0.001 to 0.999 | 0.064 | 0.001 to 0.999 | 0.001 to 0.99 | 0.001 to 0.99 |
